Literature values, collected in US20120077687A1, “PROGNOSTIC AND PREDICTIVE GENE SIGNATURE FOR NON-SMALL CELL LUNG CANCER AND ADJUVANT CHEMOTHERAPY” (priority 2010, published 2012).
Like-named read-outs stand apart in the source and are kept apart here.

Columns and labels:
[1] = system: non-small cell lung cancer (NSCLC) patients; conditions: for HR (survival): LACE meta-analysis
stage IB NSCLC patients = conditions: 344 stage IB patients, chemotherapy vs observation

| Compound | 5-year survival advantage conferred by adjuvant chemotherapy ([1]; ANITA trial, 840 stage IB-IIIA patients) [%] | 5-year survival advantage conferred by adjuvant chemotherapy ([1]; IALT, 1,867 stage I-III patients) [%] | absolute survival advantage at 5-year ([1]; LACE meta-analysis of 5 cisplatin-based trials) [%] | HR (survival) ([1]; all patients, 95% CI 0.82-0.96, p=0.004) | HR (survival) ([1]; stage IA patients, 95% CI 0.96-2.09, detriment suggested) | HR (survival) ([1]; stage IB patients, 95% CI 0.78-1.10, no significant benefit) | 5-year survival advantage conferred by adjuvant chemotherapy ([1]; NCIC CTG BR.10 Trial, 483 stage IB-II patients) [%] | HR, disease-free survival (stage IB NSCLC patients; p=0.065) | HR, overall survival (stage IB NSCLC patients; p=0.12) |
| --- | --- | --- | --- | --- | --- | --- | --- | --- | --- |
| N.N.[Cl][Pt][Cl] [cisplatin] | 9 | 4 | 5.3 | 0.89 | 1.41 | 0.92 | 15 | – | – |
| carboplatin and paclitaxel | – | – | – | – | – | – | – | 0.80 | 0.83 |
